Laboratory results reported in patent US20260083865A1, “PROSTATE SPECIFIC MEMBRANE ANTIGEN (PSMA) LIGANDS AND USE THEREOF” (priority 2022, published 2026).
Read-outs that look alike come from different tables or passages of the source. Numbered stars: 1 amine (or outer) side, 2 acyl side, 3 side chain; on linkers, the order of the positions; unused ones are H or OH. Bridge positions count the residues as written; N and C are the ends. Square brackets hold non-standard residues; d marks the D form. Peptide text beside a SMILES is read from it. * marks the point of attachment. DOTA = O=C(O)CN1CCN(CC(=O)O)CCN(CC(=O)*)CCN(CC(=O)O)CC1; Ala(quinolin-3-yl) = N[C@@H](Cc1cnc2ccccc2c1)C(=O)O; Phe(3,4-Cl2) = N[C@@H](Cc1ccc(Cl)c(Cl)c1)C(=O)O; Phe(4-Cl) = N[C@@H](Cc1ccc(Cl)cc1)C(=O)O; NMeT = CN[C@H](C(=O)O)[C@@H](C)O; hArg = N=C(N)NCCCC[C@H](N)C(=O)O; X1 = O=C(CC1CCN([*:1])CC1)[*:2]; Cit = NC(=O)NCCC[C@H](N)C(=O)O; Tle = CC(C)(C)[C@H](N)C(=O)O; Aib = CC(C)(N)C(=O)O

How the values were obtained:
[1] = target: T1, Fc-fusion protein of human PSMA (hPSMA-Fc) (Homo sapiens, UniProt Q04609); experiment: Surface plasmon resonance assay (Biacore T200, single cycle kinetic); type: binding; conditions: hPSMA-Fc, 25° C., read-out: pKD CAT (converted)
T1 construct: purchased Acro Biosystems PSA-H5264
Summary of the method: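 hPSMA-Fc was captured (~1000 RU) on an Fc-binding-peptide CM5 chip, and compounds were run in single cycle kinetic mode at 25° C in HBST with 0.1% DMSO. Double-blank-corrected sensorgrams were fitted to a 1:1 Langmuir model to give KD, reported as pKD.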

[2] = target: T2, PSMA-expressing C4-2 cells (Homo sapiens, UniProt Q04609); experiment: FACS binding assay (competition with 50 nM PSM-0183); conditions: read-out: pIC50 [C4-2] CAT (converted)
T2 construct: PSMA-expressing C4-2 cells (ATCC, Cat. No. CRL-3314) were cultured in RPMI-1640; host or cells: C4-2 cells
Summary of the method: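 C4-2 cells were incubated 1 h at 4 °C with 50 nM AF488-labelled peptide PSM-0183 plus increasing test compound concentrations, then washed twice in ice-cold buffer. Median fluorescence in the AF488 channel was read by flow cytometry. IC50/pIC50 was derived by 4PL fitting of MFI versus concentration.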

[3] = pKD category for PSMA SPR activity assay
[4] = pIC50 category of FACS binding, C4-2 cells
[5] = FACS binding, PSMA-expressing C4-2 cells, pIC50 category

T2 sequence (Q04609 whole entry): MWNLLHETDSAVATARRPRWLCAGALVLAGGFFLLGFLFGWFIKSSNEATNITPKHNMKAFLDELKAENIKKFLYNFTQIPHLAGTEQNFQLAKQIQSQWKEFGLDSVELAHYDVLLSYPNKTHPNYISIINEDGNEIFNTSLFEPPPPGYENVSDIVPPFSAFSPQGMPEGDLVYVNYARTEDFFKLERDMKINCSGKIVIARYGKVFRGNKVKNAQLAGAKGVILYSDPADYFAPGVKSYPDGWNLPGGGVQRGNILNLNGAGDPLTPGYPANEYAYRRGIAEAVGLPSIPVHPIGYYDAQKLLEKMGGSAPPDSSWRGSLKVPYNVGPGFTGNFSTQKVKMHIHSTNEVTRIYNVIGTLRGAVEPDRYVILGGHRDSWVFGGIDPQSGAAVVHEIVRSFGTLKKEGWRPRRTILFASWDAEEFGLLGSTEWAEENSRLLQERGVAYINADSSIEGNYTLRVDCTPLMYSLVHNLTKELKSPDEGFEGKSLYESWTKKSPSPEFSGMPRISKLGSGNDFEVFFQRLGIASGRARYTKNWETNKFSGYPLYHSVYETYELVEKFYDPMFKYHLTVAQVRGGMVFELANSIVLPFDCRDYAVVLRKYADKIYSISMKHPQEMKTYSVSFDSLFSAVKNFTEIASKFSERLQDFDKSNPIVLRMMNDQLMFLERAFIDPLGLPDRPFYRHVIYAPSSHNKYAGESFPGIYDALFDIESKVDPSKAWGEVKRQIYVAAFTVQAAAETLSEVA
T1 sequence (Q04609 44-750 limits assumed): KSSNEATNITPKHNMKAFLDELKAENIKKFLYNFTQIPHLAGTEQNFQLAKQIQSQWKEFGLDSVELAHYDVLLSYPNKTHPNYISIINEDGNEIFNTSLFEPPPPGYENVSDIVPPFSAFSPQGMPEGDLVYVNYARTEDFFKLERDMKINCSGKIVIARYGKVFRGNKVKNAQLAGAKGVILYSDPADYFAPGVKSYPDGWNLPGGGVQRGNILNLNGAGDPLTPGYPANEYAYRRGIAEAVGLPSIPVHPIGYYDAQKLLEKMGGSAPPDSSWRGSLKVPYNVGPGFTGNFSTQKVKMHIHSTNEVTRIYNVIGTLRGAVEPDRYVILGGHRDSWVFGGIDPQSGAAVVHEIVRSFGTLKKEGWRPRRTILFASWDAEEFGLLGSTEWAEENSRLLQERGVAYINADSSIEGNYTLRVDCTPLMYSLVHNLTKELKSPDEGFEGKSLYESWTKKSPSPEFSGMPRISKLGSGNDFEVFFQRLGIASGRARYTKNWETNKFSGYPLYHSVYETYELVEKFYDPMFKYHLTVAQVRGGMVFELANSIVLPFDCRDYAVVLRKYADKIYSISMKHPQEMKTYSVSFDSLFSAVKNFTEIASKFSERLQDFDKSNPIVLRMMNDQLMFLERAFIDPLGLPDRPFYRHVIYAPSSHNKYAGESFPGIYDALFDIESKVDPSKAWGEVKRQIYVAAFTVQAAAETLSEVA

Kd ([1]; PSMA SPR assay, pKD category) [nM]	IC50 [2, 5] [nM]	SMILES	other results
		CC(=O)N[C@H](C(=O)NC(C)(C)C(=O)N[C@@H](Cc1ccccc1)C(=O)N[C@H]1CSSC[C@@H](C(=O)N[C@H](C(=O)N[C@@H](Cc2ccccc2)C(N)=O)C(C)(C)C)NC(=O)[C@H](CC(N)=O)NC(=O)C(C)(C)NC(=O)[C@H](CCCNC(=N)N)NC(=O)[C@H](CCCCN)NC1=O)[C@@H](C)O [PSM-0556, Ac-Thr-Aib-Phe-[Cys-Lys-Arg-Aib-Asn-Cys]-Tle-Phe-NH2] (Ac-T[Aib]FCKR[Aib]NC[Tle]F-NH2; disulfide 4-9)	Kd [1, 3]: < 12.6 nM; IC50 [2, 4]: < 200 nM
12.6 to 126	< 200	C[C@@H](O)[C@H](NC(=O)[C@@H](NC(=O)[C@@H]1CSSC[C@H](NC(=O)[C@H](Cc2ccc(Cl)c(Cl)c2)NC(=O)C(C)(C)NC(=O)[C@@H](NC(=O)CC2CCN(C(=O)CN3CCN(CC(=O)O)CCN(CC(=O)O)CCN(CC(=O)O)CC3)CC2)[C@@H](C)O)C(=O)N[C@@H](CCCCN)C(=O)N[C@@H](CCCNC(N)=O)C(=O)NC(C)(C)C(=O)N[C@@H](CC(N)=O)C(=O)N1)C(C)(C)C)C(N)=O [PSM-0274, DOTA-Cmp-Thr-Aib-Eaa-[Cys-Lys-Cit-Aib-Asn-Cys]-Tle-Thr-NH2] ({DOTA}-[X1]T[Aib][Phe(3,4-Cl2)]CK[Cit][Aib]NC[Tle]T-NH2; disulfide 5-10)	
		C[C@@H](O)[C@H](NC(=O)[C@@H](NC(=O)[C@@H]1CSSC[C@H](NC(=O)[C@H](Cc2ccc(Cl)cc2)NC(=O)C(C)(C)NC(=O)[C@@H](NC(=O)CC2CCN(C(=O)CN3CCN(CC(=O)O)CCN(CC(=O)O)CCN(CC(=O)O)CC3)CC2)[C@@H](C)O)C(=O)N[C@@H](CCCCN)C(=O)N[C@@H](CCCNC(=N)N)C(=O)N[C@H](CCC(=O)O)C(=O)N[C@@H](CC(N)=O)C(=O)N1)C(C)(C)C)C(N)=O [PSM-0260, DOTA-Cmp-Thr-Aib-Pcf-[Cys-Lys-Arg-glu-Asn-Cys]-Tle-Thr-NH2] ({DOTA}-[X1]T[Aib][Phe(4-Cl)]CKR[dE]NC[Tle]T-NH2; disulfide 5-10)	Kd ([1]; SPR, single cycle kinetic, category): < 12.6 nM; IC50 ([2]; FACS binding, C4-2 cells, competition with 50 nM PSM-0183, category): < 200 nM
		C[C@H](NC(=O)[C@H]([C@@H](C)O)N(C)C(=O)CC1CCN(C(=O)CN2CCN(CC(=O)O)CCN(CC(=O)O)CCN(CC(=O)O)CC2)CC1)C(=O)N[C@@H](Cc1ccc(Cl)cc1)C(=O)N[C@H]1CSSC[C@@H](C(=O)N[C@H](C(=O)N[C@H](C(N)=O)[C@@H](C)O)C(C)(C)C)NC(=O)[C@H](CC(N)=O)NC(=O)C(C)(C)NC(=O)[C@H](CCCNC(=N)N)NC(=O)[C@H](CCCCN)NC1=O [PSM-0455, DOTA-Cmp-Nmt-Ala-Pcf-[Cys-Lys-Arg-Aib-Asn-Cys]-Tle-Thr-NH2] ({DOTA}-[X1][NMeT]A[Phe(4-Cl)]CKR[Aib]NC[Tle]T-NH2; disulfide 5-10)	Kd [1, 3]: 126 to 501 nM; IC50 [2, 4]: 200 to 1260 nM
> 501	> 3160	C[C@@H](O)[C@H](NC(=O)[C@@H](NC(=O)[C@@H]1CSSC[C@H](NC(=O)[C@H](Cc2cnc3ccccc3c2)NC(=O)C(C)(C)NC(=O)[C@@H](NC(=O)CC2CCN(C(=O)CN3CCN(CC(=O)O)CCN(CC(=O)O)CCN(CC(=O)O)CC3)CC2)[C@@H](C)O)C(=O)N[C@@H](CCCCN)C(=O)N[C@@H](CCCNC(N)=O)C(=O)NC(C)(C)C(=O)N[C@@H](CC(N)=O)C(=O)N1)C(C)(C)C)C(N)=O [PSM-0333, DOTA-Cmp-Thr-Aib-2Qi-[Cys-Lys-Cit-Aib-Asn-Cys]-Tle-Thr-NH2] ({DOTA}-[X1]T[Aib][Ala(quinolin-3-yl)]CK[Cit][Aib]NC[Tle]T-NH2; disulfide 5-10)	
< 12.6	200 to 1260	CC(=O)N[C@H](C(=O)NC(C)(C)C(=O)N[C@@H](Cc1ccccc1)C(=O)N[C@H]1CSSC[C@@H](C(=O)N[C@H](C(=O)N[C@H](C(=O)N[C@@H](CC(=O)O)C(N)=O)[C@@H](C)O)C(C)(C)C)NC(=O)[C@H](CC(N)=O)NC(=O)[C@H](C)NC(=O)[C@H](CCC(=O)O)NC(=O)[C@H](CCCCN)NC1=O)[C@@H](C)O [PSM-0363, Ac-Thr-Aib-Phe-[Cys-Lys-Glu-Ala-Asn-Cys]-Tle-Thr-Asp-NH2] (Ac-T[Aib]FCKEANC[Tle]TD-NH2; disulfide 4-9)	
< 12.6	< 200	C[C@@H](O)[C@H](NC(=O)[C@@H](NC(=O)[C@@H]1CSSC[C@H](NC(=O)[C@H](Cc2ccc(Cl)cc2)NC(=O)C(C)(C)NC(=O)[C@@H](NC(=O)CC2CCN(C(=O)CN3CCN(CC(=O)O)CCN(CC(=O)O)CCN(CC(=O)O)CC3)CC2)[C@@H](C)O)C(=O)N[C@@H](CCCCN)C(=O)N[C@@H](CCCCNC(=N)N)C(=O)NC(C)(C)C(=O)N[C@@H](CC(N)=O)C(=O)N1)C(C)(C)C)C(N)=O [PSM-0317, DOTA-Cmp-Thr-Aib-Pcf-[Cys-Lys-Har-Aib-Asn-Cys]-Tle-Thr-NH2] ({DOTA}-[X1]T[Aib][Phe(4-Cl)]CK[hArg][Aib]NC[Tle]T-NH2; disulfide 5-10)	
